# Assay results as given in patent EP0548931A1, “Material for controlling pests” (SUMITOMO CHEMICAL COMPANY, LIMITED, priority 1991, dated 1993).
# Legend:
# [1] = tested on: Thrips palmi; assay: Test Example 3: blue cloth material (Production Example 3) in glass vessel with cucumber seedlings, count of adults; type: in vivo; conditions: 0.16 mg/cm², 28° ±1°C
# Method: The same procedure as in Production Example 2 is repeated except that a blue cloth replaces the yellow cloth, to obtain a material for controlling pests containing 0.16 mg/cm² of the active ingredient.
# Soil was placed on the bottom of a glass vessel of 70 cm x 35 cm x 35 cm in size. Three cucumber seedlings, on which Thrips palmi had been parasitized, were planted at the central part of the glass vessel. After three days, a material for controlling pests with pyriproxyfen as insect growth regulator prepared according to Production Example 3 was formed into a size of 15 cm x 15 cm and set at a height of 5 cm above the ground. On the other hand, the same test was carried out using a blue cloth containing no insect growth regulator as a control.
# On the predetermined day, the number of Thrips palmi adults parasitized on the cucumbers was counted. The tests were carried out in a room kept at 28° ±1°C.
# [2] = tested on: sweetpotato whitefly; assay: Test Example 5: gravure-printed yellow Kent paper (Production Example 4) in net room with cabbages, count of larvae; type: in vivo, Bemisia tabaci; conditions: after 1 month; larvae parasitized on five randomly selected cabbages; yellow Kent paper 10 cm x 2 m, 5 g/m²; 800 adults released
# Method: Five parts of the insect growth regulator is dissolved in 65 parts of a vegetable oil, and then 20 parts of a mineral oil and 10 parts of a surface active agent are added thereto and mixed. The resulting solution is applied to a roll of yellow Kent paper of 50 cm in width and 2,000 m in length by gravure printing to obtain a material for controlling pests containing 5 g/m² of the active ingredient. […] A material for controlling pests prepared according to Production Example 4 with pyriproxyfen (insect growth regulator), a cotton seed oil (vegetable oil), tetradecane (mineral oil) and Span 85® (surface active agent produced by ICI Americas Inc.) was formed into a size of 10 cm x 2 m. It was set at a height of 30 cm above the floor surface between the rows of cabbages. Eight hundred adults of sweetpotato whitefly were released in the net room. After 1 month, the number of larvae parasitized on five randomly selected cabbages was counted.
# [3] = tested on: sweetpotato whitefly; assay: Test Example 6: spray-coated yellow Kent paper (Production Example 5) in net cage, hatching inhibition; type: in vivo, Bemisia tabaci; conditions: yellow Kent paper 15 cm x 15 cm, 1 g/m², spray-coated from acetone; eggs laid on kidney bean
# Method: One part of the insect growth regulator is dissolved in 99 parts of acetone. One hundred grams of the resulting solution is spray-coated onto a square yellow Kent paper having a side of 100 cm to obtain a material for controlling pests containing 1 g/m² of the active ingredient. A material for controlling pests with pyriproxyfen as insect growth regulator prepared according to Production Example 5 was formed into a size of 15 cm x 15 cm. It was set on one wall surface of a nylon net cage of 30 cm x 30 cm x 30 cm in size. About 100 adults of sweetpotato whitefly were released in the cage together with kidney bean on which the adults had been parasitized. One day after release of the adults, a potted kidney bean having no adults parasitized thereon was set in the cage for oviposition. Among the eggs laid on the potted kidney bean until the next day, the number of unhatched eggs was counted.
# [4] = tested on: sweetpotato whitefly; assay: Test Example 7: yellow Kent paper (Production Example 6) in net cage, hatching inhibition; type: in vivo, Bemisia tabaci; conditions: yellow Kent paper 15 cm x 15 cm, 5 g/m², cotton seed oil, tetradecane, Span 85; eggs laid on kidney bean
# Method: Five parts of the insect growth regulator is dissolved in 65 parts of a vegetable oil, and then 20 parts of a mineral oil and 10 parts of a surface active agent are added thereto and mixed. 2.25 Grams of the resulting solution is absorbed in a square yellow Kent paper having a side of 15 cm to obtain a material for controlling pests containing 5 g/m² of the active ingredient. The material for controlling pests containing pyriproxyfen (insect growth regulator), a cotton seed oil (vegetable oil), tetradecane (mineral oil) and Span 85® (surface active agent produced by ICI Americas Inc.) prepared according to Production Example 6 was formed into a size of 15 cm x 15 cm. It was set on one wall surface of a nylon net cage of 30 cm x 30 cm x 30 cm in size. About 100 adults of sweetpotato whitefly were released in the cage together with kidney bean on which the adults had been parasitized. One day after release of the adults, a potted kidney bean having no adults parasitized thereon was set in the cage for oviposition. Among the eggs laid on the potted kidney bean until the next day, the number of unhatched eggs was counted.
# [5] = tested on: sweetpotato whitefly; assay: Test Example 8: yellow Kent paper (Production Example 7) in net cage, hatching inhibition; type: in vivo, Bemisia tabaci; conditions: yellow Kent paper 15 cm x 15 cm, 0.01 g/m², cotton seed oil; eggs laid on kidney bean
# Method: 0.01 Part of the insect growth regulator is dissolved in 99.99 parts of a vegetable oil. The resulting solution is applied to a roll of yellow Kent paper of 50 cm in width and 2,000 m in length by gravure printing to obtain material for controlling pests containing 0.01 g/m² of the active ingredient. A material for controlling pests containing pyriproxyfen (insect growth regulator) and a cotton seed oil (vegetable oil) prepared according to Production Example 7 was formed into a size of 15 cm x 15 cm. It was set on one wall surface of a nylon net cage of 30 cm x 30 cm x 30 cm in size. About 100 adults of sweetpotato whitefly were released in the cage together with kidney bean on which the adults had been parasitized. One day after release of the adults, a potted kidney bean having no adults parasitized thereon was set in the cage for oviposition. Among the eggs laid on the potted kidney bean until the next day, the number of unhatched eggs was counted.
# [6] = tested on: greenhouse whiteflies; assay: Test Example 10: yellow polyethylene sheet (Production Example 9) set beside tomato, count of adults; type: in vivo, Trialeurodes vaporariorum
# Method: Ninety-eight parts by weight of a polyethylene resin (Sumikathene®; a registered trade mark of Sumitomo Chemical Co., Ltd.), 1 part by weight of pyriproxyfen, a juvenile hormone-like compound, and 1 part by weight of a polyethylene colored master batch for yellow coloration (SPEM 305 produced by Sumika Color Co., pigment content: 12 wt.%) are kneaded with a pressure kneader and then pelletized. The resulting pellet is extruded through an extruder equipped with a T-dies at 160° to 180°C to obtain a sheet-form material for controlling pests of 1 mm in thickness. A sheet-like material for controlling pests prepared according to Production Example 9 was formed into a size of 15 cm x 15 cm. It was set at the same height as that of a container (80 cm x 112 cm x 45 cm) in which tomato having greenhouse whiteflies parasitized thereon had been planted. On the other hand, a yellow film containing no insect growth regulator was set as a control in the same manner as in setting the above material for controlling pests. On the predetermined day, the number of greenhouse whitefly adults parasitized on the tomato was counted.
smiles,measurement,setting,value
"CC(COc1ccc(Oc2ccccc2)cc1)Oc1ccccn1 (stereo not drawn) [pyriproxyfen, 4-phenoxyphenyl 2-(2-pyridyloxy)propyl ether]",number of Thrips palmi adults parasitized on the cucumbers,"[1]; 0 days elapsed after setting, blue cloth 15 cm x 15 cm",5
same,number of Thrips palmi adults parasitized on the cucumbers,"[1]; 7 days elapsed after setting, blue cloth",5
same,number of Thrips palmi adults parasitized on the cucumbers,"[1]; 14 days elapsed after setting, blue cloth",3
same,number of Thrips palmi adults parasitized on the cucumbers,"[1]; 21 days elapsed after setting, blue cloth",2
same,Number of larvae,[2],192
same,Hatching inhibitory rate (%),[3],99.0%
same,Hatching inhibitory rate (%),[4],90.6%
same,Hatching inhibitory rate (%),[5],100%
same,number of greenhouse whitefly adults parasitized on the tomato (mean value per cup),"[6]; 0 days elapsed after setting, yellow polyethylene sheet 1 mm, 1 part by weight pyriproxyfen, 15 cm x 15 cm",105
same,number of greenhouse whitefly adults parasitized on the tomato (mean value per cup),"[6]; 7 days elapsed after setting, yellow polyethylene sheet",78
same,number of greenhouse whitefly adults parasitized on the tomato (mean value per cup),"[6]; 14 days elapsed after setting, yellow polyethylene sheet",75
same,number of greenhouse whitefly adults parasitized on the tomato (mean value per cup),"[6]; 18 days elapsed after setting, yellow polyethylene sheet",50
same,number of greenhouse whitefly adults parasitized on the tomato (mean value per cup),"[6]; 28 days elapsed after setting, yellow polyethylene sheet",20
same,number of greenhouse whitefly adults parasitized on the tomato (mean value per cup),"[6]; 35 days elapsed after setting, yellow polyethylene sheet",10
same,number of greenhouse whitefly adults parasitized on the tomato (mean value per cup),"[6]; 42 days elapsed after setting, yellow polyethylene sheet",3
